According to ChEMBL document CHEMBL1909589, “5-(2'-Pyridyl)-2-aminothiazoles: alkyl amino sulfonamides and sulfamides as potent NPY(5) antagonists” (Bioorg Med Chem Lett, 2011):

What was measured:
Liver microsomes [1] = test: Intrinsic clearance in human liver microsomes; assay type: ADME, Microsome
Liver microsomes [2] = test: Intrinsic clearance in rat liver microsomes; assay type: ADME, Microsome
[3] = Drug uptake in Sprague-Dawley rat brain at 3 mg/kg, po after 1 hr; assay type: ADME, organism-based; parameters: dose 3 mg/kg, route oral; details: read-out: Drug uptake
[4] = Absolute oral bioavailability in Sprague-Dawley rat at 2 mg/kg by HPLC method; assay type: ADME, organism-based; details: in vivo
[5] = Plasma clearance in Sprague-Dawley rat at 2 mg/kg, po and 1 mg/kg, iv by HPLC method; assay type: ADME, organism-based
[6] = Volume of distribution at steady state in Sprague-Dawley rat at 2 mg/kg, po and 1 mg/kg, iv by HPLC method; assay type: ADME, organism-based; details: in vivo, read-out: Vdss
[7] = Plasma concentration in Sprague-Dawley rat at 3 mg/kg, po after 1 hr; assay type: ADME, organism-based; parameters: dose 3 mg/kg, route oral
[8] = Drug uptake in Sprague-Dawley rat brain at 10 mg/kg, po after 4 hrs; assay type: ADME, organism-based; parameters: dose 10 mg/kg, route oral; details: read-out: Drug uptake
[9] = Plasma concentration in Sprague-Dawley rat at 10 mg/kg, po after 4 hrs; assay type: ADME, organism-based; parameters: dose 10 mg/kg, route oral

SMILES | CL (Liver microsomes [1]) [L/min] | CL (Liver microsomes [2]) [mL/min] | further results
CS(=O)(=O)NC[C@H]1CC[C@H](Nc2nc3c(s2)CCSc2ccccc2-3)CC1 | 2.5 | 40 | 
CC(C)S(=O)(=O)NCCCCCNc1nc(-c2ccsc2)cs1 | 5.4 | 87 | 
CC(C)S(=O)(=O)NCCOCCNc1nc(-c2ccccn2)cs1 | 1.1 |  | 
CN(C)S(=O)(=O)NCCCCCNc1nc(-c2ccccn2)cs1 | 1.8 | 110 | concentration at 1 h [3]: 4 ng/g; bioavailability [4]: 26%; clearance [5]: 140 mL/min/kg; Vd [6]: 47 L/kg; concentration at 1 h [7]: 12 ng/mL; concentration at 4 h [8]: 12 ng/g; concentration at 4 h [9]: 24 ng/mL
CCN(CC)S(=O)(=O)NCCCCCNc1nc(-c2ccccn2)cs1 | 27 | 290 | 
O=S(=O)(NCCCCCNc1nc(-c2ccccn2)cs1)N1CCOCC1 | 2.9 | 44 | 
CC1CN(S(=O)(=O)NCCCCCNc2nc(-c3ccccn3)cs2)CC(C)O1 (stereo not given) | 11 | 74 | 
CN1CCN(S(=O)(=O)NCCCCCNc2nc(-c3ccccn3)cs2)CC1 | 2.5 | 120 | 
COCCN(CCOC)S(=O)(=O)NCCCCCNc1nc(-c2ccccn2)cs1 | 16 | 150 | 
CC(C)S(=O)(=O)NCCCCCNc1nc(-c2ccccn2)cs1 | 2.2 | 72 | bioavailability [4]: 49%; clearance [5]: 383 mL/min/kg; Vd [6]: 22 L/kg
Cc1nc(C)c(S(=O)(=O)NCCCCCNc2nc(-c3ccccn3)cs2)s1 | 27 |  | 
